Source: ChEMBL document CHEMBL5543127, “Design, Synthesis, and Biological Evaluation of 2-Phenoxyalkylhydrazide Benzoxazole Derivatives as Quorum Sensing Inhibitors with Strong Antibiofilm Effect” (J Med Chem, 2024)
Values after ≈ are worked out from the molar mass of the structure shown. Active and inactive are the calls of the source. No cut-off for these calls is given here.

Tests used:
[1] = test system: Bacillus subtilis; assay: Anti-microbial activity against Bacillus subtilis ATCC9372 incubated for 20 hrs By CLSI based micro-dilution method; type: functional
[2] = test system: Bacillus pumilus; assay: Anti-microbial activity against Bacillus pumilus CMCC63202 incubated for 20 hrs By CLSI based micro-dilution method; type: functional
[3] = test system: Staphylococcus aureus; assay: Anti-microbial activity against erythromycin-susceptible Staphylococcus aureus ATCC25923 incubated for 20 hrs By CLSI based micro-dilution method; type: functional
[4] = test system: Staphylococcus aureus; assay: Anti-microbial activity against methicillin-resistant Staphylococcus aureus ATCC43300 incubated for 20 hrs By CLSI based micro-dilution method; type: functional
[5] = test system: Pseudomonas aeruginosa; assay: Anti-microbial activity against penicillin-susceptible Pseudomonas aeruginosa 27853 incubated for 20 hrs By CLSI based micro-dilution method; type: functional
[6] = test system: Escherichia coli; assay: Anti-microbial activity against penicillin-susceptible Escherichia coli ATCC25922 incubated for 20 hrs By CLSI based micro-dilution method; type: functional
[7] = test system: Pseudomonas aeruginosa; assay: Anti-microbial activity against Pseudomonas aeruginosa PAO1 incubated for 20 hrs By CLSI based micro-dilution method; type: functional
[8] = test system: Pseudomonas aeruginosa; assay: Antibacterial activity against Pseudomonas aeruginosa PAO1 at logarithmic growth phase assessed as growth inhibition at 153.6 microg/ml measured upto 25 hrs by growth curve assay; type: functional, organism-based; conditions: dose 153.6 µg/ml
[9] = test system: Pseudomonas aeruginosa; assay: Inhibition of protease in logarithmic growth phase Pseudomonas aeruginosa PAO1 assessed as inhibition rate at 102.4 microg/ml measured after 32 hrs; conditions: dose 102.4 µg/ml
[10] = test system: Pseudomonas aeruginosa; assay: Antibiofilm activity against logarithmic growth phase Pseudomonas aeruginosa PAO1 assessed as inhibition of biofilm formation at 16 microg/ml incubated for 20 hrs by crystal violet staining based analysis; type: functional; conditions: for inhibition: dose 16.0 µg/ml
[11] = test system: Pseudomonas aeruginosa; assay: Antibiofilm activity against logarithmic growth phase Pseudomonas aeruginosa PAO1 assessed as inhibition of biofilm formation at 32 microg/ml incubated for 20 hrs by crystal violet staining based analysis; type: functional
[12] = test system: Pseudomonas aeruginosa; assay: Induction of anti-bacterial effect in Pseudomonas aeruginosa PAO1 assessed as synergistic effect by measuring reduction in bacterial survival in presence of ciprofloxacin measured after 24 hrs incubation; type: functional, organism-based; conditions: dose 8-128 µg/ml
[13] = test system: Pseudomonas aeruginosa; assay: Induction of anti-bacterial effect in Pseudomonas aeruginosa PAO1 assessed as synergistic effect by measuring reduction in bacterial survival in presence of clarithromycin measured after 24 hrs incubation; type: functional, organism-based; conditions: dose 8-128 µg/ml
[14] = test system: Pseudomonas aeruginosa; assay: Induction of anti-bacterial effect in Pseudomonas aeruginosa PAO1 assessed as synergistic effect by measuring reduction in bacterial survival in presence of ciprofloxacin at 128 microg/ml measured after 24 hrs incubation relative to control; type: functional; conditions: dose 128 µg/ml
[15] = test system: Pseudomonas aeruginosa; assay: Induction of anti-bacterial effect in Pseudomonas aeruginosa PAO1 assessed as synergistic effect by measuring reduction in bacterial survival in presence of ciprofloxacin at 16 to 128 microg/ml measured after 24 hrs incubation; type: functional, organism-based; conditions: dose 16-128 µg/ml
[16] = test system: Pseudomonas aeruginosa; assay: Induction of anti-bacterial effect in Pseudomonas aeruginosa PAO1 assessed as synergistic effect by measuring reduction in bacterial survival in presence of clarithromycin at 16 to 128 microg/ml measured after 24 hrs incubation; type: functional, organism-based; conditions: dose 16-128 µg/ml
[17] = test system: Erythrocyte; assay: Hemolytic activity in mouse RBC isolated from eye ball assessed as hemolysis at 256 microg/ml incubated for 1 hr; type: toxicity, cell-based; conditions: dose 256 µg/ml
[18] = test system: Pseudomonas aeruginosa; assay: Antibacterial activity against Pseudomonas aeruginosa 27853 at logarithmic growth phase assessed as growth inhibition at 153.6 microg/ml measured upto 25 hrs by growth curve assay; type: functional, organism-based; conditions: dose 153.6 µg/ml
[19] = Inhibition of quorum sensing system in Pseudomonas aeruginosa PAO1 at logarithmic growth period assessed as inhibition of pyocyanin production at 102.4 microg/ml incubated for 18 hrs by pyocyanin inhibition assay; conditions: dose 102.4 µg/ml
[20] = test system: Pseudomonas aeruginosa; assay: Anti-bacterial effect in Pseudomonas aeruginosa PAO1 assessed as reduction in bacterial survival by measuring inhibition rate at 0.4 microg/ml measured after 24 hrs incubation relative to control; type: functional
[21] = test system: Pseudomonas aeruginosa; assay: Anti-virulence activity against logarithmic growth phase Pseudomonas aeruginosa PAO1 assessed as inhibition of Rhamnolipid production at 102.4 microg/ml measured after 24 hrs; type: functional
[22] = test system: Pseudomonas aeruginosa; assay: Induction of morphological changes in biofilm of Pseudomonas aeruginosa PAO1 assessed as biofilm damage at 102.4 microg/ml measured after 24 hrs by scanning electron microscopy; type: functional, organism-based; conditions: dose 102.4 µg/ml
[23] = test system: Pseudomonas aeruginosa; assay: Induction of cell wall rupture in Pseudomonas aeruginosa PAO1 at 102.4 microg/ml measured after 24 hrs by scanning electron microscopy; type: functional, organism-based; conditions: dose 102.4 µg/ml
[24] = test system: Pseudomonas aeruginosa; assay: Induction of cell morphological change in Pseudomonas aeruginosa PAO1 at 102.4 microg/ml measured after 24 hrs by scanning electron microscopy; type: functional, organism-based; conditions: dose 102.4 µg/ml
[25] = test system: Pseudomonas aeruginosa; assay: Inhibition of swarming movement of Pseudomonas aeruginosa PAO1 assessed as movement state of bacterial clusters after 24 hrs by swarming motility assay; type: functional, organism-based; conditions: dose 25.6-102.4 µg/ml
[26] = test system: Pseudomonas aeruginosa; assay: In vivo anti-bacterial effect in Pseudomonas aeruginosa PAO1 infected in Kunming mouse assessed as reduction in bacterial survival at 25 mg/kg, ip measured after 1 hr incubation; type: functional, organism-based
[27] = test system: Pseudomonas aeruginosa; assay: In vivo induction of anti-bacterial effect in Pseudomonas aeruginosa PAO1 infected in Kunming mouse assessed as synergistic effect by measuring reduction in bacterial survival in presence of 15 mg/kg ciprofloxacin at 25 mg/kg, ip measured after 1 hr incubation; type: functional, organism-based
[28] = test system: Pseudomonas aeruginosa; assay: In vivo induction of anti-bacterial effect in Pseudomonas aeruginosa PAO1 infected in Kunming mouse assessed as synergistic effect by measuring reduction in bacterial survival in presence of 15 mg/kg ciprofloxacin at 5 mg/kg, ip measured after 1 hr incubation relative to ciprofloxacin alone; type: functional, organism-based
[29] = Inhibition of quorum sensing system in Pseudomonas aeruginosa PAO1-lasB-gfp assessed as reduction in fluorescence intensity measured upto 12 hrs by GFP reporter strain assay; conditions: dose 32-128 µg/ml
[30] = Inhibition of quorum sensing system in Pseudomonas aeruginosa PAO1-pqsA-gfp assessed as reduction in fluorescence intensity measured upto 12 hrs by GFP reporter strain assay; conditions: dose 32-128 µg/ml
[31] = Inhibition of quorum sensing system in Pseudomonas aeruginosa PAO1- rhlA-gfp assessed as reduction in fluorescence intensity measured upto 12 hrs by GFP reporter strain assay; conditions: dose 32-128 µg/ml
[32] = Inhibition of quorum sensing system in Pseudomonas aeruginosa PAO1-gfp assessed as reduction in fluorescence intensity at 32 to 128 microg/ml measured upto 12 hrs by GFP reporter strain assay; conditions: dose 32-128 µg/ml

SMILES	MIC [1] [µg/mL]	MIC [2] [µg/mL]	MIC [3] [µg/mL]	MIC [4] [µg/mL]	MIC [5] [µg/mL]	MIC [6] [µg/mL]	MIC [7] [µg/mL]	inhibition [9]	inhibition [10]	inhibition at 32 µg/mL [11] [%]	Activity [12]	Activity [13]	Activity [14] [%]	Activity [15]	Activity [16]	Activity [17]	inhibition [19]	further results
CCCCCCCCCCC(=O)N/N=c1\sc2ccccc2n1C	> 512	> 512	> 512	> 512	> 512	> 512	> 512	> 20%	Active	> 25.4	Dose-Dependent Effect	Dose-Dependent Effect	>90	Active	Active	Non-Toxic		Activity [8]: inactive; Activity [18]: inactive
O=C(CCCCOc1ccc(Cl)cc1)NNc1nc2ccccc2o1	512 (≈ 1420 µM)	> 512	128 (≈ 356 µM)	512 (≈ 1420 µM)	512 (≈ 1420 µM)	> 512	> 512	inactive	Active	> 25.4	Dose-Dependent Effect	Dose-Dependent Effect	>90	Active	Active	Non-Toxic	Active	
O=C(CCCCOc1ccc(F)cc1)NNc1nc2ccccc2o1	> 512	> 512	> 512	> 512	512 (≈ 1490 µM)	> 512	> 512	inactive	Active	> 25.4	Dose-Dependent Effect	Dose-Dependent Effect	>90	Active	Active	Non-Toxic	53.6%	
O=C(O)c1cn(C2CC2)c2cc(N3CCNCC3)c(F)cc2c1=O [CIPROFLOXACIN]																		inhibition at 0.4 µg/mL [20]: 42%
O=C(CCCCOc1cccc(F)c1)NNc1nc2ccccc2o1	> 512	> 512	512 (≈ 1490 µM)	> 512	512 (≈ 1490 µM)	> 512	> 512	inactive	Active	> 25.4	Dose-Dependent Effect	Dose-Dependent Effect	>90	Active	Active	Non-Toxic	Active	inhibition at 102.4 µg/mL [21]: 52.1%
CC[C@H]1OC(=O)[C@H](C)[C@@H](O[C@H]2C[C@@](C)(OC)[C@@H](O)[C@H](C)O2)[C@H](C)[C@@H](O[C@@H]2O[C@H](C)C[C@H](N(C)C)[C@H]2O)[C@](C)(O)C[C@@H](C)CN(C)[C@H](C)[C@@H](O)[C@]1(C)O [AZITHROMYCIN]	0.25 (≈ 0.334 µM)	0.25 (≈ 0.334 µM)	0.25 (≈ 0.334 µM)	256 (≈ 342 µM)	16 (≈ 21.4 µM)	128 (≈ 171 µM)	256 (≈ 342 µM)											Activity [22]: Active
O=C(COc1ccc(F)cc1)NNc1nc2ccccc2o1	512 (≈ 1700 µM)	> 512	> 512	> 512	512 (≈ 1700 µM)	> 512	512 (≈ 1700 µM)	10%		> 76.6	Dose-Dependent Effect	Dose-Dependent Effect	>90	Active	Active	Non-Toxic	43.6%	Activity [8]: inactive; inhibition at 16 µg/mL [10]: > 50%; Activity [22]: Active; Activity [23]: inactive; Activity [24]: inactive; inhibition [25]: Dose-Dependent Effect; Activity [26]: inactive; Activity [27]: Active; Activity [28]: Active; inhibition [29]: Dose-Dependent Effect; inhibition [30]: Dose-Dependent Effect; inhibition [31]: Dose-Dependent Effect; inhibition [32]: Dose-Dependent Effect; Activity [18]: inactive
